Assay results: patent US20080050452A1, “METAL-CONTAINING FORMULATIONS AND METHODS OF USE” (priority 2006, published 2008)
Converted amounts (≈) assume the structure as drawn.

What was measured:
[1] = Compatibility of nanocrystalline silver with excipients; type: physicochemical; settings: 10% aqueous solution of excipient mixed with nanocrystalline silver in glass vial, 40° C. overnight
Staphylococcus aureus = test: MIC assay; type: cell-based; settings: solutions in 0.1 M lactate buffer pH 4.0
[2] = test system: Staphylococcus epidermidis; test: MIC assay; type: cell-based; settings: S. epiderm (ATCC); solutions in 0.1 M lactate buffer pH 4.0
Streptococcus pyogenes = test: MIC assay; type: cell-based; settings: solutions in 0.1 M lactate buffer pH 4.0
Streptococcus pneumoniae = test: MIC assay; type: cell-based; settings: solutions in 0.1 M lactate buffer pH 4.0
Pseudomonas aeruginosa = test: MIC assay; type: cell-based; settings: solutions in 0.1 M lactate buffer pH 4.0
Escherichia coli = test: MIC assay; type: cell-based
DNBS-induced colitis [3] = test: Total IBD score in rat DNBS-induced colitis; type: in vivo, Sprague-Dawley rats
Excerpt: Animals: Male Sprague-Dawley rats, weighing approximately 250-300 gm were purchased from Charles River Laboratories (Raleigh, N.C.). The animals were housed under standard conditions with free access to food and water. They were acclimatized for 2-3 days before commencing the experiments. The study protocol was approved by the Institutional Animal Care and Use Committees (IACUC).
Induction of ulcerative colitis: Colitis was produced according to published methods. Animals were anesthetized by intraperitoneal injection of 75 mg/kg of ketamine plus 5 mg/kg of xylazine. A single intracolonic injection of 120 mg/ml of dinitrobenzenesulfonic acid (DNBS) (Sigma Chemicals, St. Louis, Mo.) in 250 micro liter of 50% ethanol was administered through a Tom Cat catheter (Kendall Sovereign, Mansfield, Mass.) with a closed-end tip, connected to a 1 ml syringe and placed 7 cm proximal to the anus. Lubricant was applied to the tip of the catheter before injection, to protect from mucosal injury. After instillation of DNBS, 0.5 ml of air was insufflated and the catheter was removed.
Sulfasalazine (Sigma Chemicals, St Louis, Mo.), at a concentration of 120 mg/ml for intracolonic treatment and 30 mg/ml for oral treatment was used as the reference drug in all the experiments. Sulfasalazine was first dissolved in 0.1M NaOH at a concentration about 30-fold higher than the required final concentration, and then suspended in 1.5% PVA for oral dosing and 5.7% PVA for intracolonic dosing.
One group was not treated and served as no treatment group. Treatment began one day after administration of DNBS.
Macroscopic Observations: Body weight was recorded daily and the animals were examined for their physical appearance. After five days of treatment, animals were sacrificed. The colon was excised between the ileocecal junction and rectum, and opened longitudinally. After scoring of the consistency of the stool the colon was rinsed in normal saline, examined and thickness of the colonic wall and number and size of ulcers were scored. Stool consistency was graded on a scale of 0-3: 0=normal stool, well formed pellets rigid as normal; 1=loose stool, formed pellet with moisture, soft stool keeping in stool shape; 2=loose stool, stools that have abnormal form with much moisture, softer shapeless stool; 3=watery or bloody diarrhea.
Thickness of colonic wall was graded on a scale of 0-4: 0=normal, no thickness; 1=mild thickness in lower portion of the colon; 2=moderate thickness in localized area; 3=moderate thickness extending to the central portion of the colon; 4=severe thickness in the whole colon. Colonic ulceration was graded on a scale of 0-10: 0=no ulcers; 1=one small ulcer less than 2-3 mm; 2=one large ulcer more than 2-3 mm; 3=two large ulcerations more than 2-3 mm in diameter; 4=two or more sites of ulcerations extending 1 cm along the length; 5-10=when an area of ulceration extended more than 1 cm along the length of the colon, the score increases by 1 for each additional cm of involvement. The total IBD score, obtained by the sum of the scores of colonic ulcer, colon thickness and stool consistency for each animal, was calculated for each treatment group.
Statistical Analysis: The results are expressed as the mean ±SE. The statistical significance in the mean total IBD score, histopathological inflammation score, and the immunohistochemical staining of cytokines or MMP-9 was determined using Tukey-Kramer's multiple comparison tests following one-way analysis of variance (ANOVA). The data were calculated with the aid of Instat Graph Pad Software. Differences with a P value less than 0.05 were considered significant.
Methods: Colitis was induced in rats using DNBS as described in Example 25. Animals were treated intracolonically (250 μl of the test reagents) once a day for five days. […] Methods: Colitis was induced in rats using DNBS as described in Example 25. Animals were treated intracolonically (250 μl of the test reagents) once a day for five days.

[4] = Body weight in rat DNBS-induced colitis; type: in vivo, Sprague-Dawley rats; settings: rats with DNBS-induced colitis, intracolonic or oral treatment
DNBS-induced colitis [5] = test: Histopathological inflammation score of colon, rat DNBS-induced colitis; type: in vivo, Sprague-Dawley rats; settings: oral, 100 mg/kg, five days, vs placebo and untreated
Method: Histopathology: A piece of colonic tissue at 2-4 cm proximal to the anus was excised and fixed in 10% formalin and the sections were stained with hematoxylin and eosin. The remaining length of the colonic tissues was stored at −80° C. for subsequent biochemical assays. The histology slides were examined by a veterinary pathologist who was blinded to the treatment groups. The extent of microscopic mucosal damage of the colon was scored on scale of 0-5 as described with slight modification: 0=normal histological appearance; 1=histological damage limited to surface epithelium, mild infiltration of the submucosa; 2=focal ulceration and cell disruption limited to mucosa, abnormal appearance of colonic wall, mild infiltration of inflammatory cells; 3=focal, transmural inflammation and ulceration, with mild to moderate infiltration of inflammatory cells; 4=Extensive transmural ulceration and inflammation bordered by areas of normal mucosa, moderate infiltration of inflammatory cells; 5=extensive transmural ulceration and inflammation involving entire section from epithelium to serosa, severe infiltration of inflammatory cells.
Statistical Analysis: The results are expressed as the mean ±SE. […] The data were calculated with the aid of Instat Graph Pad Software. […]

IL-1β = test: Immunohistochemical staining of colon, rat DNBS-induced colitis; type: in vivo; settings: oral treatment five days
Method: (§1) Immunohistochemistry: A Universal Streptavidin/Biotin detection system (Thermo Shandon, Pittsburgh, Pa.) was used for immunohistochemical staining of formalin fixed, paraffin embedded biopsies of the colon. After dewaxing, and hydration, sections were treated with protein blocking agent to reduce non-specific binding of antibodies. The tissues were then incubated with rabbit anti-rat TNF-α, or mouse anti-rat IL-12 p70 antibodies (Biosource International, Inc, Camarillo, Calif.); rabbit anti-rat IL-1β (Serotec, Raleigh, N.C.) or rabbit anti-rat MMP-9 antibody (Chemicon International, Telecuma, Calif.) in 1% bovine serum albumin in phosphate buffered saline. Incubations with secondary antibodies, streptavidin/biotin, and chromogenic detection of peroxidase were performed according to the manufacturer's protocol. Sections were counterstained, dehydrated, mounted and examined. The intensity of the immuno-peroxidase staining was graded as described previously. Expression of cytokines was graded as: 0, no staining in the section; 1, less than 25% of the section; 2, 25-50% of the section; 3, 50-75% of the section; 4, >75% of the section with significant staining.

MMP-9 = test: as above; type: in vivo; settings: colonic tissues, oral treatment, vs placebo and no treatment
Method: as §1

TNF-α = test: as above; type: in vivo; settings: oral treatment five days
Method: as §1

Enterobacter cloacae = test: MIC assay; type: cell-based; settings: Ent. cloacae

In the case of CCCOC(=O)c1ccc(O)cc1 [Propylparaben], the “Reaction with nanocrystalline silver” value [1] is reported as “Green discoloration”.

For CC(O)CO (stereo not drawn) [Propylene glycol], the “Reaction with nanocrystalline silver” value [1] was “Discoloration”.

In the case of Polyoxyl 40 stearate, the “Reaction with nanocrystalline silver” value [1] is reported as “Grey color - no discoloration”.

Work on silver oxide [Ag2O] yielded an MIC (Staphylococcus aureus; S. aureus (ATCC)) of 3 µg/mL, an MIC (Staphylococcus aureus; S. aureus (clin.)) of 6 µg/mL and an MIC [2] of 2 µg/mL. It also gave an MIC (Streptococcus pyogenes; S. pyog (clin. 303)) of 2 µg/mL, an MIC (Streptococcus pyogenes; S. pyog (clin. 304)) of 3 µg/mL and an MIC (Streptococcus pneumoniae; S. pneumo (clin 314)) of 3 µg/mL. The MIC (Streptococcus pneumoniae; S. pneumo (clin 315)) was 2 µg/mL, the MIC (Pseudomonas aeruginosa; P. aerug (ATCC)) was 0.8 µg/mL and the MIC (Pseudomonas aeruginosa; P. aerug. (clin.)) was 2 µg/mL. For the same compound, the MIC (Escherichia coli; E. coli (ATCC), solutions in 0.1 M lactate buffer pH 4.0) was 0.8 µg/mL, the “total IBD score vs placebo” value (DNBS-induced colitis [3]; Example 27, intracolonic 250 μl once a day for five days, 0.25% homogenized) was “unable to show significant reduction” and the “total IBD score vs placebo” value (DNBS-induced colitis [3]; Example 27, intracolonic 250 μl once a day for five days, 0.5% homogenized) was “unable to show significant reduction”. For the same compound, the “total IBD score vs placebo” value (DNBS-induced colitis [3]; Example 27, intracolonic 250 μl once a day for five days, 0.5% sonicated nanodispersion) was “significantly reduced”, the “total IBD score vs placebo” value (DNBS-induced colitis [3]; Example 28, intracolonic 250 μl once a day for five days, 0.5% sonicated nanodispersion) was “significantly reduced” and the “total IBD score vs placebo” value (DNBS-induced colitis [3]; Example 28, intracolonic 250 μl once a day for five days, 1.5% sonicated nanodispersion) was “significantly reduced”.

With CCOCCOCCO [Transcutol, diethylene glycol monoethyl ether] the “Reaction with nanocrystalline silver” value [1] was “Grey color - no discoloration”.

With COC(=O)c1ccc(O)cc1 [Methylparaben] the “Reaction with nanocrystalline silver” value [1] was “Brown discoloration”.

With PEG 400 the “Reaction with nanocrystalline silver” value [1] was “Grey color - no discoloration”.

In the case of OCc1ccccc1 [Benzyl alcohol], the “Reaction with nanocrystalline silver” value [1] is reported as “Grey/slightly red”.

In the case of CCCCCCCCCCCCCCCCO [Cetyl alcohol], the “Reaction with nanocrystalline silver” value [1] is reported as “Grey color - no discoloration”.

In the case of Sodium parabens, the “Reaction with nanocrystalline silver” value [1] is reported as “Precipitation”.

In the case of CCCCCCCCCCCCCCCCCC(=O)O [Stearic acid], the “Reaction with nanocrystalline silver” value [1] is reported as “Grey color - no discoloration”.

In the case of CCCCCCCCCCCCCCCCCCO [Cetearyl alcohol], the “Reaction with nanocrystalline silver” value [1] is reported as “Light brown/green/black”.

For CCCCCCCCCCCCCCCCCC(=O)OCC(O)CO (stereo not drawn) [Glycerol monostearate], the “Reaction with nanocrystalline silver” value [1] was “Brown discoloration”.

With CCCCCCCCCCCCCC(=O)OC(C)C [Isopropyl myristate] the “Reaction with nanocrystalline silver” value [1] was “Grey color - no discoloration”.

With O=C([O-])c1ccccc1.[Na+] [Sodium benzoate] the “Reaction with nanocrystalline silver” value [1] was “White precipitate”.

For O=C(O)c1cc(/N=N/c2ccc(S(=O)(=O)Nc3ccccn3)cc2)ccc1O [sulfasalazine, salicylazosulfapyridine], the body weight change [4] was “started gaining body weight after one day of treatment”, the “total IBD score vs placebo” value (DNBS-induced colitis [3]; Example 27, intracolonic, 100 mg/kg) was “significantly reduced” and the “total IBD score vs placebo” value (DNBS-induced colitis [3]; Example 28, intracolonic, 100 mg/kg) was “significantly reduced”. For the same compound, the “total IBD score” value (DNBS-induced colitis [3]; intracolonic, 100 mg/kg, five days) was “Significant reduction”, the histopathological inflammation score (DNBS-induced colitis [5]) was “significantly reduced” and the “expression of IL-1β (immunohistochemical staining)” value (IL-1β) was “significantly reduced”. The “expression of MMP-9 (immunohistochemical staining)” value (MMP-9) was “significantly reduced” and the “expression of TNF-α (immunohistochemical staining)” value (TNF-α) was “significantly reduced”.

With OO [Sample H2O2, hydrogen peroxide] the “Reaction with nanocrystalline silver” value [1] was “Brown discoloration after drying”, the MIC (Enterobacter cloacae; absence of catalase and superoxide dismutase (−)) was 63 µg/mL (≈ 1850 µM) and the MIC (Enterobacter cloacae; presence of catalase and superoxide dismutase (+)) was >500 µg/mL. The MIC (Escherichia coli; E. coli, absence of catalase and superoxide dismutase (−)) was 31 µg/mL (≈ 911 µM) and the MIC (Escherichia coli; E. coli, presence of catalase and superoxide dismutase (+)) was >500 µg/mL.
